According to US20130317096A1, “SYNERGISTIC INTERACTION OF AT LEAST ONE VITAMIN E COMPONENT AND TYROSINASE INHIBITORS FOR DERMATOLOGICAL APPLICATIONS” (Davos Life Science Pte Ltd, priority 2010, published 2013):
“Also recorded” adds a separate entry of the source.

What was measured:
tyrosinase [1] = biological target: T1, tyrosinase (Mus musculus, UniProt P11344); assay: Tyrosinase activity of treated B16 melanoma cells (L-DOPA, dopachrome formation); assay type: cell-based; conditions: 20 μM; for tyrosinase activity: day 9
T1 construct: suppression of tyrosinase protein expression in B16 melanoma cells; endogenous in cells; host or cells: B16 melanoma cells
T1 sequence (P11344 19-533): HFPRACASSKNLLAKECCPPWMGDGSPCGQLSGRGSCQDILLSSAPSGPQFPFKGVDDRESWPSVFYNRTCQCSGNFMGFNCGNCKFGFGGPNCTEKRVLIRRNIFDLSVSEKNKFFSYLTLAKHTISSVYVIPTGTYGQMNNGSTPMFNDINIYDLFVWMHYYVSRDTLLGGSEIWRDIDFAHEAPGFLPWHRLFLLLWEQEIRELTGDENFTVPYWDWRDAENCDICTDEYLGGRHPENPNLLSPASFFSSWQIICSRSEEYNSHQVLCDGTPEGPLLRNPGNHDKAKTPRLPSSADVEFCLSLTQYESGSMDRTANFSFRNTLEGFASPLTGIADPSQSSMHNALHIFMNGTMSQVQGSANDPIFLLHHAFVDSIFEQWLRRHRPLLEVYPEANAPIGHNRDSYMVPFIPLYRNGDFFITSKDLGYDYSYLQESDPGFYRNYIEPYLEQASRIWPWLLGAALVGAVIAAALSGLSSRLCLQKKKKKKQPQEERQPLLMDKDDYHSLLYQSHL
Protocol: (§1) At different time points, cells were harvested using trysin-EDTA and the cell pellets were washed once with phosphate-buffered saline (PBS). A sample amount from each compound treatment group was divided into two equal parts. These cell pellets were then stored at −80° C. prior to the measurement of the tyrosinase activity and melanin content.
Harvested cell pellets were homogenized in RIPA buffer (10 mM Tris-HCl [pH 7.5], 1% NP-40, 0.1% sodium deoxycholate, 0.1% SDS, 150 mM sodium chloride, and 1 mM EDTA) with protease inhibitors and placed on ice for 30 min. The supernatants were collected after centrifuging the samples at 15,000 g at 4° C. for 30 min. For every 100 μl of supernatant, 200 μl of 0.3% L-DOPA (Sigma-Aldrich) was added. All samples, including a blank control of RIPA buffer and 0.3% L-DOPA, were incubated at 37° C. for 20 min. The dopachrome formation from each sample was then measured at 475 nm. The absorbance percentage values of the treated groups in comparison to untreated controls were calculated against per μg of the total protein content, which was determined using the DC protein assay (Bio-Rad, Hercules, Calif., USA).

B16 cells = assay: Melanin content of pre-treated B16 cells after UV exposure; assay type: cell-based, mouse; conditions: 10 minutes UV exposure (short and long wave UV)
Excerpt: (§2) The UVB source for cell irradiation was provided using a UVP UVM-57 handheld UV lamp (UVP Inc, Upland, Calif., USA).

B16 melanoma cells [2] = assay: MTT cell viability assay; assay type: cell-based, mouse; conditions: 24 hrs of treatment, increasing dosages
Protocol: B16 mouse melanoma cells were purchased from (ATCC, Manassas, Va., USA).
The base medium for the cell line was Dulbecco's modified Eagle's medium (DMEM). To make the complete growth medium, fetal bovine serum (final concentration, 10%) was added to the base medium. Tocotrienol (T3) and tocopherol (TP) isomers and the palm tocotrienol-rich fraction (TRF) were purified from a palm fatty acid distillate (PFAD) using molecular distillation and Novasep® equipment (Novasep, Pompey, France). The extraction facility is located in Tuas, Singapore. The PFAD feed was purchased from Kuala Lumpur Kepong Berhad (Kuala Lumpur, Malaysia). The purity of the vitamin E isomers was verified by HPLC and gas chromatography (GC) percentage peak area.
For the cell viability study, 5×10^3 cells re-suspended in 100 μl of medium were plated into each well of a 96-well plate. The cells were then treated with different concentrations of the vitamin-E isomers for 24 hrs. After the treatment, 20 μl of MTT solution (1 mg/ml in PBS; Sigma-Aldrich, St. Louis, Mo., USA) was added to each well and the cells were incubated at 37° C. for 2 hrs. The formazan crystals were then re-suspended in 200 μl of DMSO and the intensity at 595 nm was measured.

tyrosinase [3] = assay: Western blot of tyrosinase protein expression in B16 melanoma cells; assay type: cell-based, mouse; conditions: for tyrosinase protein expression: 20 μM treatment; for tyrosinase protein suppression, dose response and relative potency: increasing dosage; for time response of tyrosinase suppression: single dose, 24 hrs versus 48 hrs
Protocol: Carcinogenesis, 2006, 27, 2180-9. Briefly, cell lysates were prepared by suspending cell pellets in lysis buffer (50 mmol/l Tris-HCl [pH 8.0], 150 mmol/l NaCl, 1% NP40, 0.5% deoxycholate, 0.1% SDS, […], 1 μg/ml leupeptin, and 1 mmol/l phenylmethylsulfonyl fluoride). The protein concentration was measured using the DC Protein Assay kit (Bio-Rad, Hercules, Calif., USA). An equal amount of protein (30 μg) was loaded onto a 10% SDS polyacrylamide gel for electrophoresis, then transferred onto a polyvinylidene difluoride membrane (Amersham, Piscataway, N.J., USA). The membrane was then incubated with primary antibodies for 1 hr at room temperature against tyrosinase, Id1, and beta-actin (Santa Cruz Biotechnology, Inc., Santa Cruz, Calif., USA). After incubation with appropriate secondary antibodies, signals were visualized by an ECL Western blotting system (Amersham). The expression of β-actin was assessed as an internal loading control for total cell lysate.

B16 melanoma cells [4] = assay: Anti-pigmentation effect, photographs of cell pellets; assay type: cell-based, mouse; conditions: 20 μM
Protocol: as §1

[5] = system: cleaved caspase 3 and PARP; assay: Western blot of apoptotic molecules; assay type: cell-based, mouse; conditions: B16 melanoma cells
B16 melanoma cells [6] = assay: Melanin content of treated B16 melanoma cells; assay type: cell-based, mouse; conditions: for melanin content lower than controls / melanin content: 20 μM; for melanin content: days 5 and 9
Protocol: as §1
Harvested cell pellets were dissolved in 1 ml of 1N sodium hydroxide before incubation at 80° C. The melanin content was then immediately measured at 420 nm. The absorbance percentage values of the treated groups in comparison to untreated controls were calculated against per μg of the determined total protein content.

tyrosinase [7] = assay: UV-induced tyrosinase protein expression, Western blot; assay type: cell-based, mouse
Protocol: as §2
Briefly, cell lysates were prepared by suspending cell pellets in lysis buffer (50 mmol/l Tris-HCl [pH 8.0], 150 mmol/l NaCl, 1% NP40, 0.5% deoxycholate, 0.1% SDS, 1 mg/ml aprotinin, 1 μg/ml leupeptin, and 1 mmol/l phenylmethylsulfonyl fluoride). The protein concentration was measured using the DC Protein Assay kit (Bio-Rad, Hercules, Calif., USA). An equal amount of protein (30 μg) was loaded onto a 10% SDS polyacrylamide gel for electrophoresis, then transferred onto a polyvinylidene difluoride membrane (Amersham, Piscataway, N.J., USA). The membrane was then incubated with primary antibodies for 1 hr at room temperature against tyrosinase, Id1, and beta-actin (Santa Cruz Biotechnology, Inc., Santa Cruz, Calif., USA). After incubation with appropriate secondary antibodies, signals were visualized by an ECL Western blotting system (Amersham). The expression of β-actin was assessed as an internal loading control for total cell lysate.

## CC(C)=CCC/C(C)=C/CC/C(C)=C/CCC1(C)CCc2cc(O)c(C)c(C)c2O1 (stereo not shown) [γ-tocotrienol, 7,8-dimethyltocotrienol]
Tyrosinase [1]; listed as gamma T3
  tyrosinase activity: significantly suppressed the activity of tyrosinase on day 9
Tyrosinase [1]; listed as γT3
  tyrosinase activity: comparable to that treated with 0.05% kojic acid
Tyrosinase [1]; day 15
  tyrosinase activity compared to controls: < 15%
B16 cells
  melanin content after UV exposure: significantly suppressed the melanin content
B16 melanoma cells [2]
  B16 melanoma cell viability / proliferation rate: inhibited the proliferation rate of B16 melanoma cells in a dose-dependent fashion; also recorded: inhibit B16 melanoma cell viability at high concentrations
Tyrosinase [3]; listed as γ-T3
  tyrosinase protein expression: remarkable suppression of tyrosinase protein expression
  tyrosinase protein suppression, dose response and relative potency: significant suppression of tyrosinase in a dose-dependent manner
  time response of tyrosinase suppression: enhanced by increasing the treatment period from 24 to 48 hrs
Tyrosinase [3]; listed as γT3
  tyrosinase protein expression: suppresses tyrosinase protein expression
  tyrosinase protein suppression, dose response and relative potency: stronger
  time response of tyrosinase suppression: enhanced after a 48 hr incubation period
B16 melanoma cells [4]; listed as gamma T3
  cell pellet pigmentation: lighter cell pigmentation
B16 melanoma cells [4]; listed as γT3
  cell pellet pigmentation: lighter cell pigmentation
[5]
  induction of apoptotic molecules (cleaved caspase 3 and PARP): induced critical apoptotic molecules in a dose-dependent manner
[5]; listed as γ-T3
  induction of apoptotic molecules (cleaved caspase 3 and PARP): induced cellular apoptosis
B16 melanoma cells [6]; day 5
  melanin content lower than controls: 45%
B16 melanoma cells [6]; day 9
  melanin content lower than controls: 30%
B16 melanoma cells [6]; listed as gamma T3
  melanin content: significantly suppressed the melanin content up to day 9
B16 melanoma cells [6]; listed as γT3
  melanin content: marginally lower than the treatment samples using 0.05% sodium lactate and kojic acid
B16 melanoma cells [6]; B16 melanoma cells
  constitutive melanin synthesis: suppress constitutive melanin synthesis
Tyrosinase [7]; UV 1, 10, 30 and 60 minutes
  tyrosinase protein expression of B16 cells exposed to UV: significantly suppressed the tyrosinase protein expression
Tyrosinase [7]; long-term UVB
  long-term inhibitory effect on UVB-induced tyrosinase activation: comparable
